The subject of one data set is BEAS-2B cell line. The experiment in a line: Mitophagy activity in BEAS-2B cells expressing mt-Keima (FACS, confocal microscope, mito-YFP). Conditions: BEAS-2B mt-Keima (FIG. 5). It counts as cell-based, human. The method, then:
To analyze the mitophagy-promoting activity effect of the CD1-012 synthesized in the Example 1, the BEAS-2B cell line, which is a human normal lung cell line, was induced to express the mt-Keima fluorescent protein. Following this, the CD1-012 (15 μM) and the compound of Comparative Example 1, CCCP (10 μM), were treated for 24 hours. After the treatment, the mitophagy activity of each sample was measured, and the results were represented in FIGS. 1A to 1C.
Specifically, FIG. 1A represents the analysis results using flow cytometry (FACS) (treatment of CD1-012 at 15 μM for 24 hours), FIG. 1B represents the analysis results using a confocal microscope (treatment of CD1-012 at 15 μM for 18 hours), and FIG. 1C represents the measurement results of the quantitative changes in the mitochondria using a fluorescent protein, mito-YFP, which includes a targeting sequence to transport protein to the mitochondria (treatment of CD1-012 at 20 μM for 24 hours).
It was confirmed whether CD1-012 synthesized in Example 1 promotes mitophagy activity in a concentration- and time-dependent manner. To this end, the CD1-012 was treated at various concentrations or at a fixed concentration (15 μM) for different treatment durations in the BEAS-2B cell line expressing mt-Keima, and mitophagy activity was measured using a flow cytometer.
It was confirmed whether CD1-012 synthesized in Example 1 specifically increases only mitophagy activity. To this end, the BEAS-2B cell line expressing mt-Keima was treated with CD1-012 (15 μM) or Comparative Example 1 (CCCP, 10 μM) for 18 hours, and mitophagy activity was analyzed using a confocal microscope. Additionally, to measure autophagy activity, the BEAS-2B cell line expressing Keima fluorescent protein was incubated in Hanks' balanced salt solution (HBSS) for 3 hours to induce a starvation condition (starv.), and the results were compared with samples treated with CD1-012 (15 μM) for 18 hours using a confocal microscope.
To this end, the human normal lung cell line BEAS-2B, expressing mt-Keima fluorescent protein, was treated with CD1-012, Comparative Example 2 (palmatine), or Comparative Example 3 (berberine) at various concentrations, and the mitophagy-inducing activity of each sample was compared.

Data set [1] has as its system mitochondrial reactive oxygen species (ROS). Put plainly: Mitochondrial reactive oxygen species, MitoSOX assay. The format is cell-based. Conditions: CD1-012 10 μM or 15 μM, CCCP 10 μM, 24 hours (FIG. 6). The protocol:
(§1) It was confirmed whether the isoquinoline derivative according to the present invention induces mitochondrial dysfunction, similar to CCCP. To this end, the CD1-012 (10 μM or 15 μM) and CCCP (10 μM) were treated for 24 hours, and the mitochondrial membrane potential and mitochondrial reactive oxygen species (ROS) levels in each sample were analyzed. Mitochondrial membrane potential was analyzed using the TMRM (tetramethylrhodamine methyl ester) assay, and mitochondrial ROS levels were analyzed using the MitoSOX assay.

The test system of data set [2] is BEAS-2B cell line, in which PINK1 was knocked down. Put plainly: Mitophagy activity in PINK1 knockdown (shPINK1) BEAS-2B cells (FACS). The format is cell-based, human. Conditions: CCCP 10 μM, CD1-012 15 μM, 18 hours (FIG. 7). The text has this: In this example, it was confirmed whether the mitophagy activation function of the isoquinoline derivative according to the present invention is dependent on the PINK1-Parkin pathway. […]
In the following example, it was confirmed whether the novel isoquinoline derivative according to the present invention has a therapeutic effect of preventing or improving Parkinson's disease. Most of all, it was confirmed whether the treatment with the isoquinoline derivative improves mitochondrial dysfunction of a Parkinson's disease cell model. To this end, first, the induction of mitophagy by CD1-012 was verified. […] In addition, to analyze whether the mitophagy-promoting activity of CD1-012 is dependent on PINK1, PINK1 expression was inhibited (using shPNIK1) in BEAS-2B cells, which is a human normal lung cell line expressing a mitochondrial fluorescent protein, and mitophagy activity was analyzed by flow cytometry (FACS).

Data set [3] has as its system mitochondrial membrane potential. Put plainly: Mitochondrial membrane potential, TMRM assay. The format is cell-based. Particulars: CD1-012 10 μM or 15 μM, CCCP 10 μM, 24 hours (FIG. 6). The protocol: as §1

The results in this text go back to patent US20260130894A1, “COMPOSITION COMPRISING ISOQUINOLINE DERIVATIVE AS ACTIVE INGREDIENT FOR PREVENTION OR TREATMENT OF PARKINSON'S DISEASE” (ALTMEDICAL CO., LTD., priority 2022, published 2026).

For `COc1cc2c(cc1OC)-c1cc3ccc(OC)c(OC)c3c[n+]1CC2` [palmatine, Palmatine, reference compound], the “concentration at which mitophagy activity reached its maximum” value with BEAS-2B cell line was 400 µM.

As for `COc1ccc2cc3[n+](cc2c1OC)CCc1cc2c(cc1-3)OCO2` [berberine, Berberine, reference compound], the “concentration at which mitophagy activity reached its maximum” value in the data set on BEAS-2B cell line was determined as 80 µM.

As for `N#CC(C#N)=NNc1cccc(Cl)c1` [CCCP, Carbonyl cyanide 3-chlorophenylhydrazone, reference compound], the “mitochondrial ROS levels” value in data set [1] is “significantly increased”. In data set [2], the “mitophagy activation in PINK1 knockdown cell line (shPINK1) compared to control cell line (shNT)” value is “significantly decreased”. The mitochondrial membrane potential result in data set [3] is “significantly reduced”.
